Assay results: patent US20230113037A1 (Bayer Aktiengesellschaft, priority 2019, published 2023)
Where two headings read alike, the source gives them in different places.

Tests used:
[1] = biological target: T1, AHR (Mus musculus, UniProt P30561); assay: In vitro assay 3: antagonism in mouse cell line (AHR transactivation, firefly luciferase reporter, kynurenic acid prestimulated); type: cell-based
T1 sequence (P30561 1-848 P471L/N533S/M589L): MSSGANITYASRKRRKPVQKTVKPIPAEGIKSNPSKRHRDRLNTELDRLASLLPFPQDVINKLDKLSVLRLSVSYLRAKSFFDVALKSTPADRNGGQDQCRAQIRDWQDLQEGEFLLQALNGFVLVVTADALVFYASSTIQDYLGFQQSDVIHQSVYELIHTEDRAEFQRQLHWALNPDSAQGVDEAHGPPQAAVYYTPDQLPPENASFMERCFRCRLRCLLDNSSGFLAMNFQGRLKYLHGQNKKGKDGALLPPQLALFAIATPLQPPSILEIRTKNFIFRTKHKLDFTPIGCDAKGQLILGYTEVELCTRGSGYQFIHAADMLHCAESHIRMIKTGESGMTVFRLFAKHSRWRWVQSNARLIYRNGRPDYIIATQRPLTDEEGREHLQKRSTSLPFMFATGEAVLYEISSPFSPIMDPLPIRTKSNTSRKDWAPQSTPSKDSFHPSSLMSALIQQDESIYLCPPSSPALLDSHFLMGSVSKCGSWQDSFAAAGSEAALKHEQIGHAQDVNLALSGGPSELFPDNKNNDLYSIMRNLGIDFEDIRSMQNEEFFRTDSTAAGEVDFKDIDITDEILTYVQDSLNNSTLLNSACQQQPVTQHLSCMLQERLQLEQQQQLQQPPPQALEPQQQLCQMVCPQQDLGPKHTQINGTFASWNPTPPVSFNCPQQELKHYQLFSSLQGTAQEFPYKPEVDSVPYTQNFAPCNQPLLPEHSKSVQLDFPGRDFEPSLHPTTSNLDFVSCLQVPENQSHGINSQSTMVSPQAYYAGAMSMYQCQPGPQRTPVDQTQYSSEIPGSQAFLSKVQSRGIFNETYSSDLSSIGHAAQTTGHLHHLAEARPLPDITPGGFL
Outline: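 Antagonism read as reduced firefly luciferase signal (SteadyGlo) from a stably transfected AHR/DRE reporter in a mouse line prestimulated with kynurenic acid. Data normalized to controls, the full-inhibition control being cells without kynurenic acid; multiple determinations given as average or median values.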

[2] = biological target: T2, AHR (Homo sapiens, UniProt P35869); assay: In vitro assay 1: antagonism in human cell line (AHR transactivation, firefly luciferase reporter, kynurenic acid prestimulated); type: cell-based; conditions: AHR Antagonism Human IC50 [M]
T2 construct: U87 MG glioblastoma cells (ATCC #HTB-14) endogenously expressing AHR; endogenous in cells; host or cells: U87 MG glioblastoma cells (ATCC #HTB-14)
T2 sequence (P35869 11-848): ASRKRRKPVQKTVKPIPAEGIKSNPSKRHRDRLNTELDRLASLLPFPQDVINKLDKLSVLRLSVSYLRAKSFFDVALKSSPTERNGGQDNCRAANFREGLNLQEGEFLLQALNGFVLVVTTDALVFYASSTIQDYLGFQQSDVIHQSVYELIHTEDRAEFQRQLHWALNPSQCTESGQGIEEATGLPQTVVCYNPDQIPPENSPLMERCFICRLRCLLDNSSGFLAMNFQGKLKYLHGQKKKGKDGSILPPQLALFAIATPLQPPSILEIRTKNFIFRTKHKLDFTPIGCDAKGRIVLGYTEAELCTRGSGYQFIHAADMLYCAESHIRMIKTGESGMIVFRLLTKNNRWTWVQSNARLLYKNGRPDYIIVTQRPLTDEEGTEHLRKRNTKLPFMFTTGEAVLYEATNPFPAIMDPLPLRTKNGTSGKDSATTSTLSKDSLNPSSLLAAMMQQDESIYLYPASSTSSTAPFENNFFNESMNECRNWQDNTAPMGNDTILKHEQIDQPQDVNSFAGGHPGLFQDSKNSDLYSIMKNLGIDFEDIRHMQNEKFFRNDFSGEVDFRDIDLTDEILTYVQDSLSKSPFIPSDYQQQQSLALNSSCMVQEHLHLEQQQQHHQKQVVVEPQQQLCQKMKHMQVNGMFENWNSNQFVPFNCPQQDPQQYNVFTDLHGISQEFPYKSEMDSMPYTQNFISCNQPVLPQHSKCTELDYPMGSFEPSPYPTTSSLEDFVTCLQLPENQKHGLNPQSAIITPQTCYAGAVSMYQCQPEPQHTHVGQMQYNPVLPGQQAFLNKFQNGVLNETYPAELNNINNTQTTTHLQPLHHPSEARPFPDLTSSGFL
Outline: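 Antagonism measured as loss of kynurenic acid-driven firefly luciferase from DRE reporter in stably transfected U87 MG cells; constitutive Renilla signal monitors cytotoxicity. Positive/negative control normalization, staurosporine 5 μM with 150 μM kynurenic acid as inhibition control; replicates given as mean or median.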

[3] = mouse Hepa 1c1c7 cells, 200 μM kynurenic acid, 20 hours, read-out: AHR Antagonism Mouse IC50
[4] = read-out: AHR Antagonism Mouse IC50, mouse Hepa 1c1c7 cells, 200 μM kynurenic acid, 20 hours

SMILES	IC50 [1, 3] [nM]	IC50 [2] [M]	IC50 [1, 4] [nM]
COc1ccc(-c2nc3c4ccc(C)cc4nc(N[C@@H]4CNCCNC4=O)n3n2)cc1 [Example 274, (6R)-6-{[2-(4-methoxyphenyl)-8-methyl[1,2,4]triazolo[1,5-c]quinazolin-5-yl]amino}-1,4-diazepan-5-one]	2150	1.09e-06	–
COc1ccc(-c2nc3c4cc(OC)ccc4nc(N[C@@H]4CNCCNC4=O)n3n2)cc1 [Example 279, (6R)-6-{[9-methoxy-2-(4-methoxyphenyl)[1,2,4]triazolo[1,5-c]quinazolin-5-yl]amino}-1,4-diazepan-5-one]	180	3.08e-07	–
O=C1NCCNCC1Nc1nc2cccc(Cl)c2c2nc(-c3cccc(F)c3)nn12 (centres unmarked) [Example 284, 6-{[10-chloro-2-(3-fluorophenyl)[1,2,4]triazolo[1,5-c]quinazolin-5-yl]amino}-1,4-diazepan-5-one]	277	> 2e-05	–
O=C1NCCNC[C@H]1Nc1nc2cccc(C(F)(F)F)c2c2nc(-c3cccc(F)c3)nn12 [Example 288, (6R)-6-{[2-(3-fluorophenyl)-10-(trifluoromethyl)[1,2,4]triazolo[1,5-c]quinazolin-5-yl]amino}-1,4-diazepan-5-one]	–	> 2e-05	887
COc1ccc(-c2nc3c4c(OC)cccc4nc(N[C@@H]4CNCCNC4=O)n3n2)cc1 [Example 291, (6R)-6-{[10-methoxy-2-(4-methoxyphenyl)[1,2,4]triazolo[1,5-c]quinazolin-5-yl]amino}-1,4-diazepan-5-one]	2680	2.65e-06	–
O=C1NCCNCC1Nc1nc2cccc(C3CC3)c2c2nc(-c3cccc(F)c3)nn12 (centres unmarked) [Example 295, 6-{[10-cyclopropyl-2-(3-fluorophenyl)[1,2,4]triazolo[1,5-c]quinazolin-5-yl]amino}-1,4-diazepan-5-one]	2910	> 2e-05	–
CN(C)Cc1noc(-c2nc3c4ccccc4nc(N[C@@H]4CCCCNC4=O)n3n2)n1 [Example 304, (3R)-3-[(2-{3-[(Dimethylamino)methyl]-1,2,4-oxadiazol-5-yl}[1,2,4]triazolo[1,5-c]quinazolin-5-yl)amino]azepan-2-one]	1830	2.86e-06	–
O=C1NCCCC[C@H]1Nc1nc2ccccc2c2nc(-c3nc(CCO)no3)nn12 [Example 305, (3R)-3-({2-[3-(2-Hydroxyethyl)-1,2,4-oxadiazol-5-yl][1,2,4]triazolo[1,5-c]quinazolin-5-yl}amino)azepan-2-one]	–	2.97e-07	178
O=C1NCCCC[C@H]1Nc1nc2ccccc2c2nc(-c3cccc(OC(F)(F)F)c3)nn12 [Example 309, (3R)-3-({2-[3-(Trifluoromethoxy)phenyl][1,2,4]triazolo[1,5-c]quinazolin-5-yl}amino)azepan-2-one]	1.97	2.47e-08	–

Continued by falling IC50 [1, 3], values first:

IC50 [1, 3] [nM]	IC50 [2] [M]	SMILES	IC50 [1, 4] [nM]
13900	7.02e-07	Cc1cccc2c1nc(N[C@@H]1CNCCNC1=O)n1nc(-c3cnn(C)c3)nc21 [Example 271, (6R)-6-{[7-methyl-2-(1-methyl-1H-pyrazol-4-yl)[1,2,4]triazolo[1,5-c]quinazolin-5-yl]amino}-1,4-diazepan-5-one]	–
4590	> 2e-05	COc1ccc(-c2nc3c4ccc(C(F)(F)F)cc4nc(N[C@@H]4CNCCNC4=O)n3n2)cc1 [Example 273, (6R)-6-{[2-(4-methoxyphenyl)-8-(trifluoromethyl)[1,2,4]triazolo[1,5-c]quinazolin-5-yl]amino}-1,4-diazepan-5-one]	–
3350	2.78e-06	Cn1cc(-c2nc3c4c(C(F)(F)F)cccc4nc(N[C@@H]4CNCCNC4=O)n3n2)cn1 [Example 286, (6R)-6-{[2-(1-methyl-1H-pyrazol-4-yl)-10-(trifluoromethyl)[1,2,4]triazolo[1,5-c]quinazolin-5-yl]amino}-1,4-diazepan-5-one]	–
756	6.55e-06	O=C1NCCNC[C@H]1Nc1nc2cccc(C(F)(F)F)c2c2nc(-c3ccc(F)cc3)nn12 [Example 287, (6R)-6-{[2-(4-fluorophenyl)-10-(trifluoromethyl)[1,2,4]triazolo[1,5-c]quinazolin-5-yl]amino}-1,4-diazepan-5-one]	–
625	1.36e-06	COc1ccc(-c2nc3c4c(C(F)(F)F)cccc4nc(N[C@@H]4CNCCNC4=O)n3n2)cc1 [Example 285, (6R)-6-{[2-(4-methoxyphenyl)-10-(trifluoromethyl)[1,2,4]triazolo[1,5-c]quinazolin-5-yl]amino}-1,4-diazepan-5-one]	–
293	4.52e-07	COCc1noc(-c2nc3c4ccccc4nc(N[C@@H]4CCCCNC4=O)n3n2)n1 [Example 303, (3R)-3-({2-[3-(Methoxymethyl)-1,2,4-oxadiazol-5-yl][1,2,4]triazolo[1,5-c]quinazolin-5-yl}amino)azepan-2-one]	–
269	1.12e-06	COc1cccc(-c2nc3c4c(C)cccc4nc(N[C@@H]4CNCCNC4=O)n3n2)c1 [Example 289, (6R)-6-{[2-(3-methoxyphenyl)-10-methyl[1,2,4]triazolo[1,5-c]quinazolin-5-yl]amino}-1,4-diazepan-5-one]	–
51	3.72e-07	COc1ccc(-c2nc3c4cc(Cl)ccc4nc(N[C@@H]4CNCCNC4=O)n3n2)cc1 [Example 278, (6R)-6-{[9-chloro-2-(4-methoxyphenyl)[1,2,4]triazolo[1,5-c]quinazolin-5-yl]amino}-1,4-diazepan-5-one]	–
31.2	1.09e-07	CS(=N)(=O)c1ccc(-c2nc3c4ccccc4nc(N[C@@H]4CCCCNC4=O)n3n2)cc1 (stereo partly drawn) [Example 306, (3R)-3-({2-[4-(S-methylsulfonimidoyl)phenyl][1,2,4]triazolo[1,5-c]quinazolin-5-yl}amino)azepan-2-one]	–
16.4	1.45e-08	COc1ccc(-c2nc3c4ccc(F)cc4nc(N[C@@H]4CNCCNC4=O)n3n2)cc1 [Example 276, (6R)-6-{[8-fluoro-2-(4-methoxyphenyl)[1,2,4]triazolo[1,5-c]quinazolin-5-yl]amino}-1,4-diazepan-5-one]	–
15.1	> 2e-05	COc1ccc(-c2nc3c4cc(F)ccc4nc(N[C@@H]4CNCCNC4=O)n3n2)cc1 [Example 277, (6R)-6-{[9-fluoro-2-(4-methoxyphenyl)[1,2,4]triazolo[1,5-c]quinazolin-5-yl]amino}-1,4-diazepan-5-one]	–
3.07	6.36e-09	O=C1NCCNC[C@H]1Nc1nc2c(Br)cccc2c2nc(-c3cccc(F)c3)nn12 [Example 268, (6R)-6-{[7-bromo-2-(3-fluorophenyl)[1,2,4]triazolo[1,5-c]quinazolin-5-yl]amino}-1,4-diazepan-5-one]	–
0.946	7.93e-10	COc1ccc(-c2nc3c4cccc(Br)c4nc(N[C@@H]4CNCCNC4=O)n3n2)cc1 [Example 270, (6R)-6-{[7-bromo-2-(4-methoxyphenyl)[1,2,4]triazolo[1,5-c]quinazolin-5-yl]amino}-1,4-diazepan-5-one]	–
